Values of other authors in patent US20080015265A1, “Methods of treating obesity using satiety factors” (priority 2006, published 2008).
Like-named read-outs stand apart in the source and are kept apart here. Where no end group is shown, it is not given here.

Experiments:
[1] = species not stated
[2] = human subjects; peripheral or intravenous administration
[3] = for food intake (feeding) / weight gain: rats and/or mice
[4] = for food intake: several species including humans
[5] = system: hepatocyte

In the case of `O=C1N[C@@H](Cc2cnc[nH]2)C(=O)N2CCC[C@@H]12` [cyclo-his-pro], the food intake [1] is listed as “reduce food intake”.

In the case of `CC[C@H](C)[C@H](NC(=O)[C@@H]1CCCN1C(=O)CNC(=O)[C@H](Cc1ccccc1)NC(=O)[C@H](CC(N)=O)NC(=O)[C@H](CC(N)=O)NC(=O)[C@H](CO)NC(=O)[C@H](CO)NC(=O)[C@H](Cc1c[nH]cn1)NC(=O)[C@@H](NC(=O)[C@H](CC(C)C)NC(=O)[C@H](Cc1ccccc1)NC(=O)[C@H](CC(N)=O)NC(=O)[C@H](C)NC(=O)[C@H](CC(C)C)NC(=O)[C@H](CCCNC(=N)N)NC(=O)[C@H](CCC(N)=O)NC(=O)[C@@H](NC(=O)[C@H](C)NC(=O)[C@@H]1CSSC[C@H](NC(=O)[C@@H](N)CCCCN)C(=O)N[C@@H](CC(N)=O)C(=O)N[C@@H]([C@@H](C)O)C(=O)N[C@@H](C)C(=O)N[C@@H]([C@@H](C)O)C(=O)N1)[C@@H](C)O)C(C)C)C(=O)N[C@@H](CC(C)C)C(=O)N1CCC[C@H]1C(=O)N1CCC[C@H]1C(=O)N[C@H](C(=O)N[C@@H](CC(N)=O)C(=O)N[C@H](C(=O)NCC(=O)N[C@@H](CO)C(=O)N[C@@H](CC(N)=O)C(=O)N[C@H](C(=O)N[C@@H](Cc1ccc(O)cc1)C(N)=O)[C@@H](C)O)C(C)C)[C@@H](C)O` [pramlintide, reference compound], the “body weight (weight loss / weight gain)” value [1] is given as “sustained weigh loss” and the food intake [1] is given as “decreased food intake”.

In the case of `C=CC1=C(C)c2cc3[nH]c(cc4nc(cc5[nH]c(cc1n2)c(C)c5CCC(=O)O)C(CCC(=O)O)=C4C)c(C)c3C=C` [protoporphyrin], the “body weight (weight loss / weight gain)” value [1] is listed as “decrease food intake and body weight” and the food intake [1] is listed as “decrease food intake”.

For “Glucagon-like peptide-1 (7-36)-amide (HAEGTFTSDVSSYLEGQAAKEFIAWLVKGR-NH2; UniProt P01275 98-127, looked up) [GLP-1]”, the food intake [2] is given as “reduce food intake” and the hunger / appetite [2] is given as “suppress hunger”.

For “NPW: ligand for orphan G protein-coupled receptors (WYKHVASPRYHTVGRAAGLLMGL; Neuropeptide W-23; UniProt Q8N729 33-55, looked up)”, the food intake (animals) is given as “stimulate food intake”.

For PYY3-36, the food intake [2] is given as “significant food intake reduction”, the “food intake (feeding)” value [3] is given as “inhibits food intake” and the weight gain [3] is given as “reduced weigh gain”.

For “amylin (KCNTATCATQRLANFLVHSSNNFGAILSSTNVGSNTY; not fully specified (C-terminus, bridges); cysteine pairing not given here; UniProt P10997 34-70, looked up) [37 amino acid peptide released by the β cells of the pancreas]”, the “body weight (weight loss / weight gain)” value [1] is given as “sustained weigh loss” and the food intake [1] is given as “decreased food intake”.

For beacon, the food intake (animals) is given as “stimulate food intake” and the weight gain (animals) is given as “stimulate food intake and weight gain”.

For “bombesin [bombesin or bombesin-like peptide]”, the food intake [4] is given as “Feed suppression”.

In the case of “corticotropin-releasing hormone (SEEPPISLDLTFHLLREVLEMARAEQLAQQAHSNRKLMEII; ends and bridges not checked; UniProt P06850 154-194, looked up)”, the food intake (animals) is given as “reduce food intake”.

For dynorphin, the food intake (animals) is listed as “stimulate food intake”.

For enterostatin, the dietary fat preference ([3]; mammals, demonstrated in rodent studies) is listed as “reduce dietary fat preference”.

For “galanin (GWTLNSAGYLLGPHAVGNHRSFSDKNGLTS; Galanin; UniProt P22466 33-62, looked up)”, the “food intake (feeding)” value [3] is given as “stimulate food intake”.

In the case of “galanin-like peptide (APAHRGRGGWTLNSAGYLLGPVLHLPQMGDQDGKRETALEILDLWKAIDGLPYSHPPQPS; Galanin-like peptide; UniProt Q9UBC7 25-84, looked up)”, the “food intake (feeding)” value [3] is given as “stimulate food intake”.

For “ghrelin (GSSFLSPEHQRVQQRKESKKPPAKLQPR; ends and bridges not checked; also: octanoyl acylation; UniProt Q9UBU3 24-51, looked up) [28 amino acid acylated peptide produced mainly by the stomach]”, the body weight ([4]; rodents and persons) is listed as “increase body weight”, the fat oxidation ([4]; rodents and persons) is listed as “reducing fat oxidation” and the food intake [4] is listed as “stimulating food intake”.

For “growth hormone-releasing hormone (YADAIFTNSYRKVLGQLSARKLLQDIMSRQQGESNQERGARARL; ends and bridges not checked; UniProt P01286 32-75, looked up)”, the “body weight (weight loss / weight gain)” value [1] is given as “stimulate food intake and weight gain” and the food intake [1] is given as “stimulate food intake”.

For hypocretins/orexins, the appetite ([3]; rats) is listed as “stimulate appetite” and the “food intake (feeding)” value [3] is listed as “stimulate appetite and food intake”.

For leptin, the “body weight (weight loss / weight gain)” value [1] is listed as “decrease food intake and body weigh” and the food intake [1] is listed as “decrease food intake”.

In the case of “motilin (FVPIFTYGELQRMQEKERNKGQ; Motilin; UniProt P12872 26-47, looked up) [polypeptide hormone secreted by Mo cells of the small intestine]”, the gastrointestinal motility [1] is given as “increase the gastrointestinal motility”.

In the case of “neuropeptide B (WYKPAAGHSSYSVGRAAGLLSGLRRSPYA; Neuropeptide B-29; UniProt Q8NG41 25-53, looked up) [ligand for orphan G protein-coupled receptors]”, the food intake (animals) is given as “stimulate food intake”.

For “neuropeptide K (DADSSIEKQVALLKALYGHGQISHKRHKTDSFVGLM; ends and bridges not checked; UniProt P20366 72-107, looked up)”, the food intake (animals) is listed as “inhibit food intake”.

For neuropeptide Y, the food intake (animals) is listed as “stimulate food intake”.

In the case of neurotensin, the food intake [1] is listed as “decrease food intake”.

In the case of obestatin, the jejunal contraction ([3]; rats) is listed as “inhibited jejunal contraction”, the “food intake (feeding)” value [3] is listed as “suppressed food intake” and the weight gain [3] is listed as “decreased body weigh gain”.

For “oxyntomodulin (HSQGTFTSDYSKYLDSRRAQDFVQWLMNTKRNRNNIA; Oxyntomodulin; UniProt P01275 53-89, looked up) [37 amino acid peptide, product of the proglucagon gene]”, the energy intake ([4]; administered to rodents and humans) is given as “reduce energy intake”.

For oxytocin, the food intake (animals) is listed as “increase food intake”.

For “pancreatic peptide (APLEPVYPGDNATPEQMAQYAADLRRYINMLTRPRY; ends and bridges not checked; UniProt P01298 30-65, looked up) [PP, 36-amino acid peptide of the NPY family produced in the pancreatic islets]”, the food intake [2] is given as “sustained decrease in appetite and food intake”, the hunger / appetite [2] is given as “sustained decrease in appetite” and the “food intake (feeding)” value [3] is given as “reduces food intake”. The weight gain [3] was “reduces food intake and weight gain”.

In the case of prolactin-releasing peptide, the food intake (animals) is listed as “increase food intake”.

For “somatostatin (AGCKNFFWKTFTSC; ends and bridges not checked; cysteine pairing not given here; UniProt P61278 103-116, looked up)”, the food intake (animals) is given as “reduce food intake”.

For “urocortin (DNPSLSIDLTFHLLRTLLELARTQSQRERAEQNRIIFDSV; ends and bridges not checked; UniProt P55089 83-122, looked up)”, the “food intake (feeding)” value [3] is given as “reduces feeding” and the drinking ([3]; rats, infused) is given as “reduces feeding and drinking”.

For “vasopressin (CYFQNCPRG; ends and bridges not checked; cysteine pairing not given here; UniProt P01185 20-28, looked up)”, the food intake (animals) is given as “reduce food intake”.

In the case of β casomorphin, the food intake (animals with a high fat diet) is given as “increase food intake” and the food intake (animals with a low fat diet) is given as “decrease food intake”.

B1: apolipoprotein A-IV (protein, UniProt P06727 21-396, looked up)
Apolipoprotein A-IV: EVSADQVATVMWDYFSQLSNNAKEAVEHLQKSELTQQLNALFQDKLGEVNTYAGDLQKKLVPFATELHERLAKDSEKLKEEIGKELEELRARLLPHANEVSQKIGDNLRELQQRLEPYADQLRTQVSTQAEQLRRQLTPYAQRMERVLRENADSLQASLRPHADELKAKIDQNVEELKGRLTPYADEFKVKIDQTVEELRRSLAPYAQDTQEKLNHQLEGLTFQMKKNAEELKARISASAEELRQRLAPLAEDVRGNLRGNTEGLQKSLAELGGHLDQQVEEFRRRVEPYGENFNKALVQQMEQLRQKLGPHAGDVEGHLSFLEKDLRDKVNSFFSTFKEKESQDKTLSLPELEQQQEQQQEQQQEQVQMLAPLES
notes: non-gut peptide satiety factor
In the case of B1, the food intake (animals) is listed as “dose dependent reduction of food intake”.

B2: ciliary neurotrophic factor (protein, UniProt P26441 1-200, looked up)
Ciliary neurotrophic factor: MAFTEHSPLTPHRRDLCSRSIWLARKIRSDLTALTESYVKHQGLNKNINLDSADGMPVASTDQWSELTEAERLQENLQAYRTFHVLLARLLEDQQVHFTPTEGDFHQAIHTLLLQVAAFAYQIEELMILLEYKIPRNEADGMPINVGDGGLFEKKLWGLKVLQELSQWTVRSIHDLRFISSHQTGIPARGSHYIANNKKM
In the case of B2, the “body weight (weight loss / weight gain)” value [1] is listed as “cause weigh loss”.

B3: nesfatin (protein, UniProt P80303 25-106, looked up)
Nesfatin-1: VPIDIDKTKVQNIHPVESAKIEPPDTGLYYDEYLKQVIDVLETDKHFREKLQKADIEEIKSGRLSKELDLVSHHVRTKLDEL
modifications: Nesfatin-1
notes: produced by the brain
In the case of B3, the food intake (animals) is given as “reduce food intake in a dose-dependent manner”.

B4: cholecystokinin (peptide, UniProt P06307 21-115, looked up)
Cholecystokinin: QPVPPADPAGSGLQRAEEAPRRQLRVSQRTDGESRAHLGALLARYIQQARKAPSGRMSIVKNLQNLDPSHRISDRDYMGWMDFGRRSAEEYEYPS
notes: gut peptide released mainly in response to dietary fat
For B4, the food intake [4] is listed as “dose-dependent inhibition of food intake”.

B5: adiponectin (protein, UniProt Q15848 19-244, looked up)
Adiponectin: ETTTQGPGVLLPLPKGACTGWMAGIPGHPGHNGAPGRDGRDGTPGEKGEKGDPGLIGPKGDIGETGVPGAEGPRGFPGIQGRKGEPGEGAYVYRSAFSVGLETYVTIPNMPIRFTKIFYNQQNHYDGSTGKFHCNIPGLYYFAYHITVYMKDVKVSLFKKDKAMLFTYDQYQENNVDQASGSVLLHLEVGDQVWLQVYGEGERNGLYADNDNDSTFTGFLLYHDTN
notes: as for B1
For B5, the “sensitivity of the hepatocyte to insulin” value [5] is given as “increase the sensitivity of the hepatocyte to insulin”.
